Several values for one entry are separate records, joined by “and”; a condition that tells them apart may be missing. Equal values may be shown once. Inconclusive results and toxic doses are left out. Rule for the calls: active = survival T/C of 150% or more; inactive = T/C below 125% in these data.
Tested on: P388 leukemia ip, CD2F1 mice, survival T/C
Assay: NCI In Vivo Anticancer Drug Screen. Data for tumor model P388 Leukemia (intraperitoneal) in CD2F1 (CDF1) mice
Conditions: endpoint: median survival time, higher = longer survival
In short: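 Mice carrying the transplanted tumor received test compound or vehicle. Survival was recorded in each group, and the value is the treated-group measurement divided by that of the vehicle-treated control group.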

[1] = dose: 50.0 mg/kg/injection, schedule: Q01DX005 (ip), vehicle: saline with Tween-80
[2] = dose: 100.0 mg/kg/injection, schedule: Q01DX005 (ip), vehicle: saline with Tween-80
[3] = dose: 12.5 mg/kg/injection, schedule: Q01DX009 (ip), vehicle: saline
[4] = dose: 25.0 mg/kg/injection, schedule: Q01DX009 (ip), vehicle: saline
[5] = dose: 60.0 mg/kg/injection, schedule: Q01DX005 (ip), vehicle: saline
[6] = dose: 120.0 mg/kg/injection, schedule: Q01DX005 (ip), vehicle: saline
[7] = dose: 50.0 mg/kg/injection, schedule: Q01DX009 (ip), vehicle: saline
[8] = dose: 100.0 mg/kg/injection, schedule: Q04DX002 (ip), vehicle: saline with Tween-80

Measured: T/C

Cc1cn(C2CC(O)C(CO)O2)c(=O)[nH]c1=O (stereo not given)
inactive: dose: 16.0 mg/kg/injection, schedule: Q01DX009 (ip), vehicle: saline 100 % of control and 105 % of control | dose: 32.0 mg/kg/injection, schedule: Q01DX009 (ip), vehicle: saline with Tween-80 109 % of control | dose: 64.0 mg/kg/injection, schedule: Q01DX009 (ip), vehicle: saline with Tween-80 101 % of control | dose: 128.0 mg/kg/injection, schedule: Q01DX009 (ip), vehicle: saline with Tween-80 101 % of control | dose: 150.0 mg/kg/injection, schedule: Q02HX012 (ip), vehicle: saline 96 % of control | dose: 150.0 mg/kg/injection, schedule: Q04DX012 (ip), vehicle: saline 104 % of control | dose: 200.0 mg/kg/injection, schedule: Q02HX012 (ip), vehicle: saline 98 % of control | dose: 200.0 mg/kg/injection, schedule: Q04DX012 (ip), vehicle: saline 102 % of control | dose: 250.0 mg/kg/injection, schedule: Q01DX001 (ip), vehicle: saline 98 % of control | dose: 250.0 mg/kg/injection, schedule: Q01DX009 (ip), vehicle: saline 100 % of control | dose: 256.0 mg/kg/injection, schedule: Q01DX009 (ip), vehicle: saline with Tween-80 89 % of control | dose: 300.0 mg/kg/injection, schedule: Q02HX012 (ip), vehicle: saline 101 % of control | dose: 300.0 mg/kg/injection, schedule: Q04DX012 (ip), vehicle: saline 100 % of control | dose: 375.0 mg/kg/injection, schedule: Q01DX009 (ip), vehicle: saline 107 % of control and 95 % of control | dose: 400.0 mg/kg/injection, schedule: Q02HX012 (ip), vehicle: saline 109 % of control | dose: 400.0 mg/kg/injection, schedule: Q04DX012 (ip), vehicle: saline 105 % of control | dose: 500.0 mg/kg/injection, schedule: Q01DX001 (ip), vehicle: saline 98 % of control | dose: 512.0 mg/kg/injection, schedule: Q01DX009 (ip), vehicle: saline with Tween-80 108 % of control | dose: 512.0 mg/kg/injection, schedule: Q01DX009 (ip), vehicle: saline 99 % of control and 102 % of control | dose: 600.0 mg/kg/injection, schedule: Q02HX012 (ip), vehicle: saline 108 % of control | dose: 600.0 mg/kg/injection, schedule: Q04DX012 (ip), vehicle: saline 102 % of control | dose: 750.0 mg/kg/injection, schedule: Q01DX009 (ip), vehicle: saline 115 % of control and 97 % of control | dose: 1000.0 mg/kg/injection, schedule: Q01DX009 (ip), vehicle: saline 101 % of control and 103 % of control and 110 % of control | dose: 1500.0 mg/kg/injection, schedule: Q01DX009 (ip), vehicle: saline 108 % of control

Clc1ccc2c(NCCCCCCNc3ccnc4cc(Cl)ccc34)ccnc2c1
inactive: dose: 6.25 mg/kg/injection, schedule: Q01DX005 (ip), vehicle: saline with Tween-80 97 % of control | dose: 12.5 mg/kg/injection, schedule: Q01DX005 (ip), vehicle: saline with Tween-80 90 % of control | dose: 25.0 mg/kg/injection, schedule: Q01DX005 (ip), vehicle: saline with Tween-80 99 % of control | [1] 100 % of control | [2] 109 % of control

O=C(CC(c1ccccc1)C(C(=O)O)c1ccc(Br)cc1)c1ccccc1 (stereo not given)
inactive: dose: 12.5 mg/kg/injection, schedule: Q01DX005 (ip), vehicle: Klucel (hydroxypropylcellulose) (HPC) 100 % of control | dose: 25.0 mg/kg/injection, schedule: Q01DX005 (ip), vehicle: Klucel (hydroxypropylcellulose) (HPC) 90 % of control | dose: 50.0 mg/kg/injection, schedule: Q01DX005 (ip), vehicle: Klucel (hydroxypropylcellulose) (HPC) 89 % of control

Cn1cccc([N+](=O)[O-])c1=O
inactive: dose: 5.0 mg/kg/injection, schedule: Q01DX009 (ip), vehicle: saline 105 % of control and 109 % of control | dose: 10.0 mg/kg/injection, schedule: Q01DX009 (ip), vehicle: saline 101 % of control and 108 % of control | [3] 113 % of control and 114 % of control | dose: 20.0 mg/kg/injection, schedule: Q01DX009 (ip), vehicle: saline 102 % of control and 110 % of control | [4] 100 % of control and 107 % of control | dose: 40.0 mg/kg/injection, schedule: Q01DX009 (ip), vehicle: Klucel (hydroxypropylcellulose) (HPC) 100 % of control | dose: 40.0 mg/kg/injection, schedule: Q01DX009 (ip), vehicle: saline 105 % of control | dose: 60.0 mg/kg/injection, schedule: Q01DX009 (ip), vehicle: Klucel (hydroxypropylcellulose) (HPC) 104 % of control

Cc1oc2ccccc2c(=O)c1CN1CCN(c2ccccn2)CC1
inactive: [5] 101 % of control | [6] 101 % of control

CC(C)NCC(O)COc1c2ccccc2nc2ccccc12 (stereo not given)
inactive: [1] 101 % of control | [2] 95 % of control | dose: 200.0 mg/kg/injection, schedule: Q01DX005 (ip), vehicle: saline with Tween-80 102 % of control

CCC12CCCN3CCC4(c5ccc(OC)cc5N(C)C4C(O)(OC(C)=O)C1OC(C)O)C32 (stereo not given)
inactive: [1] 100 % of control | [2] 87 % of control

CC(=O)NCC[N+](C)(C)C
inactive: [3] 100 % of control | [4] 108 % of control | [7] 99 % of control

O=C(/C=C/c1ccc(OCc2ccccc2)cc1)c1ccccc1[N+](=O)[O-]
inactive: dose: 50.0 mg/kg/injection, schedule: Q01DX009 (ip), vehicle: saline with Tween-80 104 % of control | dose: 100.0 mg/kg/injection, schedule: Q01DX009 (ip), vehicle: saline with Tween-80 101 % of control | dose: 200.0 mg/kg/injection, schedule: Q01DX009 (ip), vehicle: saline with Tween-80 92 % of control

CC(O)Cc1c(N)n2c(nc3ccccc32)[nH]c1=O (stereo not given)
inactive: dose: 60.0 mg/kg/injection, schedule: Q01DX005 (ip), vehicle: Klucel (hydroxypropylcellulose) (HPC) 102 % of control | dose: 120.0 mg/kg/injection, schedule: Q01DX005 (ip), vehicle: Klucel (hydroxypropylcellulose) (HPC) 97 % of control | dose: 240.0 mg/kg/injection, schedule: Q01DX005 (ip), vehicle: Klucel (hydroxypropylcellulose) (HPC) 92 % of control

C=Cn1c([N+](=O)[O-])cnc1/C=C/c1ccc(C(=O)OCCN2CCOCC2)cc1
inactive: dose: 25.0 mg/kg/injection, schedule: Q04DX002 (ip), vehicle: saline with Tween-80 101 % of control | dose: 50.0 mg/kg/injection, schedule: Q04DX002 (ip), vehicle: saline with Tween-80 101 % of control | [8] 103 % of control and 90 % of control

COC(=O)[C@@H]1CON(Cc2ccccc2)C1CC1(C)OCCO1 (stereo not given in full)
inactive: dose: 60.0 mg/kg/injection, schedule: Q01DX005 (ip), vehicle: saline with Tween-80 103 % of control | dose: 120.0 mg/kg/injection, schedule: Q01DX005 (ip), vehicle: saline with Tween-80 104 % of control | dose: 240.0 mg/kg/injection, schedule: Q01DX005 (ip), vehicle: saline with Tween-80 109 % of control

CC(=O)/C(=C\c1ccccc1F)C(=O)CCN(C)C
inactive: [5] 109 % of control | [6] 118 % of control

C/C(=N/NC(=O)c1ccccc1)c1ccc(Cl)cc1Cl
inactive: dose: 12.5 mg/kg/injection, schedule: Q01DX009 (ip), vehicle: Klucel (hydroxypropylcellulose) (HPC) 90 % of control

C/C=C(\C(=O)OC)C1CC2OC(=O)C1(C=O)C13CCNC21N(C)c1ccccc13 (stereo not given)
inactive: dose: 4.5 mg/kg/injection, schedule: Q01DX005 (ip), vehicle: saline + Tween-80 + alcohol 104 % of control | dose: 9.5 mg/kg/injection, schedule: Q01DX005 (ip), vehicle: saline + Tween-80 + alcohol 98 % of control | dose: 18.0 mg/kg/injection, schedule: Q01DX005 (ip), vehicle: saline + Tween-80 + alcohol 104 % of control | dose: 38.0 mg/kg/injection, schedule: Q01DX005 (ip), vehicle: saline + Tween-80 + alcohol 98 % of control

CN(C)CCCNc1cc(/C=C/c2cccc3ccccc23)nc2ccccc12
inactive: [3] 91 % of control | [4] 92 % of control | [7] 92 % of control

CC12CC3(C)CC(C)(C1)CC(C(Cl)C(=O)NC(C)(C)C)(C2)C3 (stereo not given)
inactive: dose: 50.0 mg/kg/injection, schedule: Q01DX009 (ip), vehicle: Klucel (hydroxypropylcellulose) (HPC) 97 % of control | dose: 100.0 mg/kg/injection, schedule: Q01DX009 (ip), vehicle: Klucel (hydroxypropylcellulose) (HPC) 93 % of control | dose: 200.0 mg/kg/injection, schedule: Q01DX009 (ip), vehicle: Klucel (hydroxypropylcellulose) (HPC) 107 % of control

CC(=O)Oc1cc(OCCCc2ccc(F)cc2)cc2ccc3ccccc3c12
inactive: [8] 92 % of control | dose: 400.0 mg/kg/injection, schedule: Q04DX002 (ip), vehicle: saline with Tween-80 92 % of control

CC(C[N+](C)(C)C)OC(N)=O (stereo not given)
inactive: dose: 50.0 mg/kg/injection, schedule: Q01DX001 (ip), vehicle: saline 101 % of control | dose: 100.0 mg/kg/injection, schedule: Q01DX001 (ip), vehicle: saline 100 % of control | dose: 200.0 mg/kg/injection, schedule: Q01DX001 (ip), vehicle: saline 108 % of control

— PubChem BioAssay AID330 (DTP/NCI, 2004)
